Measured values: patent US11970448B2, “Monomers capable of dimerizing in an aqueous solution, and methods of using same” (CORNELL UNIVERSITY, priority 2011, dated 2024)
Where a name gives a salt, the structure may show the parent alone. Read-outs that look alike come from different tables or passages of the source.

Molecular target: T1, recominbant human tryptase, beta, from lung (Homo sapiens, UniProt P20231)
T1 construct: purchased Promega or Enzo Life Sciences G5631 or BML-SE418
Experiment: Inhibition of tryptase activity by monomers and multimers (Boc-Gln-Ala-Arg-AMC fluorescence)
Format: biochemical
Settings: monomers against tryptase
Procedure: Stock solutions of recominbant human tryptase, beta, from lung (Promega: catalog number G5631, or Enzo Life Sciences: catalog number BML-SE418) were made at 30 μM, in solution with 5 μM heparin sulfate and 1 M NaCl. Monomer tryptase inhibitor stock solutions were made at 50 mM in DMSO. Test substance plates were made at 1.2× the final concentration in assay buffer (50 mM HEPES, 150 mM NaCl, 100 μM EDTA, pH 7.4, 0.02% Tween-20). A final concentration of 1 nM tryptase was used. When required, test substances were diluted in water immediately before use in 10-fold serial dilutions. After the indicated incubation time, the test subtance-tryptase solution at 1.2× concentration, was diluted into assay buffer containing a final concentration of 200 μM N-tert-butoxycarbonyl-Gln-Ala-Arg-AMC HBr [AMC=7-amino-4-methylcoumarin] (Boc-Gln-Ala-Arg-AMC; Enzo Life Sciences: catalog number BML-P237) to a final volume of 50 μl in black opaque round bottom 96 well plates (Corning, catalog number 3792). The release of fluorescent AMC was immediately measured every 30 seconds over 15-30 minutes at an excitation wavelength of 367 nm, monitoring emission at 468 nm on a Spectramax M5 (Molecular Devices) microplate reader. The Softmax Pro (Molecular Devices) and Graphpad prism software were used to determine Vmax, and concentration-response curve IC50s, respectively.

[1] = read-out: IC50 range group of additional monomers (boronic acid, benzooxaborole, ligands)
[2] = Table 5, read-out: Monomer IC50 range
[3] = entry marked (1:10), read-out: IC50 range group of additional monomers marked (1:10)

T1 sequence (P20231 31-275): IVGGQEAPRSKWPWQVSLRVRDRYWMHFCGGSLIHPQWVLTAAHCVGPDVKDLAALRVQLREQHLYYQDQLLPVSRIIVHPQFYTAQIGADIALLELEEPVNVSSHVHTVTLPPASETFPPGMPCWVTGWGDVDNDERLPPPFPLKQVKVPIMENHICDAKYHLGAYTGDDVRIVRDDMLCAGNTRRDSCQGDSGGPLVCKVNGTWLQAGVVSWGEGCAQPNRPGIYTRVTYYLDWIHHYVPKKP

Compound | IC50 [1] [nM] | IC50 [2] [nM] | IC50 [3] [nM]
NCc1cccc(C2CCN(C(=O)c3cccc(NC(=O)C4CC5CC4C(O)C5O)c3)CC2)c1 (racemic) [T139RACEENDO, (±) endo-N-(3-(4-(3-(aminomethyl)phenyl)piperidine-1-carbonyl)phenyl)-5,6-syn-dihydroxybicyclo[2.2.1]heptane-2-carboxamide] | 1000 to 10000 | – | –
NCc1cccc(C2CCN(C(=O)C3CC4CC3C(O)C4O)CC2)c1 (racemic) [T140RACEENDO, (±) endo (4-(3-(aminomethyl)phenyl)piperidin-1-yl)-(5,6-syn-dihydroxybicyclo[2.2.1]heptan-2-yl)methanone] | 1000 to 10000 | – | –
NCc1cccc(C2CCN(C(=O)c3cccc(NC(=O)C4CC5CCC4C(O)C5O)c3)CC2)c1 (racemic) [T141ENDOANTI, (±) endo-N-(3-(4-(3-(aminomethyl)phenyl)piperidine-1-carbonyl)phenyl)-5,6-anti-dihydroxybicyclo[2.2.2]octane-2-carboxemide.] | 0.1 to 1000 | – | –
NCc1cccc(C2CCN(C(=O)c3cccc(NC(=O)C4CC5CCC4C(O)C5O)c3)CC2)c1 (racemic) [T141EXOANTI, (±) exo-N-(3-(4-(3-(aminomethyl)phenyl)piperidine-1-carbonyl)phenyl)-5,6-anti-dihydroxybicyclo[2.2.2]octane-2-carboxamide.] | 1000 to 10000 | – | –
NCc1cccc(C2CCN(C(=O)c3cccc(NC(=O)C4CC5CCC4C(O)C5O)c3)CC2)c1 (racemic) [T141EXOSYN, (±) exo-N-(3-(4-(3-(aminomethyl)phenyl)piperidine-1-carbonyl)phenyl)-5,6-syn-dihydroxybicyclo[2.2.2]octane-2-carboxamide.] | 1000 to 10000 | – | –
NCc1cccc(C2CCN(C(=O)C3CC4CCC3C(O)C4O)CC2)c1 (racemic) [T142ENDOANTI, (±) endo (4-(3-(aminomethyl)phenyl)piperidin-1-yl)(-5,6-anti-dihydroxybicyclo[2.2.2]octan-2-yl)methanone] | 0.1 to 1000 | – | –
NCc1cccc(C2CCN(C(=O)C3CC4CCC3C(O)C4O)CC2)c1 (racemic) [T142ENDOSYN, (±) endo (4-(3 (aminomethyl)phenyl)piperidin-1-yl)(-5,6-syn-dihydroxybicyclo[2.2.2]octan-2-yl)methanone] | 10000 to 65000 | – | –
NCc1cccc(C2CCN(C(=O)C3CC4CCC3C(O)C4O)CC2)c1 (racemic) [T142EXOANTI, (±) endo (4-(3 (aminomethyl)phenyl)piperidin-1-yl)(-5,6-anti-dihydroxybicyclo[2.2.2]octan-2-yl)methanone] | 10000 to 65000 | – | –
NCc1ccc(C(=O)NCc2ccc(OCC(=O)N3C[C@H](O)[C@@H](O)C3)cc2)cc1 [CF1, 4-(aminomethyl)-N-(4-(2-((3S,4S)-3,4-dihydroxypyrrolidin-1-yl)-2-oxoethoxy)benzyl)benzamide hydrochloride] | – | 10000 to 65000 | –
NCc1cccc(C2CCN(C(=O)c3ccc(Cl)c(Cl)c3)CC2)c1 [CF5, (4-(3-(aminomethyl)phenyl)piperidin-1-yl)(3,4-dichlorophenyl)methanone] | – | 0.1 to 1000 | –
NCc1ccc(C(=O)NCc2ccc(OCC(=O)N3C[C@@H](O)[C@H](O)C3)cc2)cc1 [CF6, 4-(aminomethyl)-N-(4-(2-((3R,4R)-3,4-dihydroxypyrrolidin-1-yl)-2-oxoethoxy)benzyl)benzamide hydrochloride] | – | 10000 to 65000 | –
NCc1ccc(C(=O)NCc2ccc(OCC(=O)N3CC(=O)[C@H](O)C3)cc2)cc1 [CF7, (R)-4-(aminomethyl)-N-(4-(2-(3-hydroxy-4-oxopyrrolidin-1-yl)-2-oxoethoxy)benzyl)benzamide hydrochloride] | – | 1000 to 10000 | –
NCc1ccc(C(=O)NCc2ccc(OCCC(=O)N3CC(=O)[C@@H](O)C3)cc2)cc1 [CF10, (S)-4-(aminomethyl)-N-(4-(3-(3-hydroxy-4-oxopyrrolidin-1-yl)-3-oxopropoxy)benzyl)benzamide hydrochloride] | – | 10000 to 65000 | –
NCc1ccc(C(=O)NCc2ccc(OCCC(=O)N3CC(=O)[C@H](O)C3)cc2)cc1 [CF12, (R)-4-(aminomethyl)-N-(4-(3-(3-hydroxy-4-oxopyrrolidin-1-yl)-3-oxopropoxy)benzyl)benzamide hydrochloride] | – | 1000 to 10000 | –
NCc1ccc(CNC(=O)N2CCN(C(=O)CNC(=O)C(O)CO)CC2)cc1 (stereo not drawn) [CF13, N-(4-(aminomethyl)benzyl)-4-(2-(2,3-dihydroxypropanamido)acetyl)piperazine-1-carboxamide hydrochloride] | – | 1000 to 10000 | –
NCc1ccc2c(c1)C1(CCN(C(=O)c3ccc(OCC(O)CO)cc3)CC1)CO2 (stereo not drawn) [CF15, (5-(aminomethyl)-2H-spiro[benzofuran-3,4′-piperidine]-1′-yl)(4-(2,3-dihydroxypropoxy)phenyl)methanone hydrochloride] | – | 1000 to 10000 | –

Compound | IC50 [1] [nM] | IC50 [2] [nM] | IC50 [3] [nM]
NCc1cccc(C2CCN(C(=O)c3cccc(NC(=O)NCC(O)C(F)(F)F)c3)CC2)c1 (stereo not drawn) [CF17, 1-(3-(4-(3-(aminomethyl)phenyl)piperidine-1-carbonyl)phenyl)-3-(3,3,3-trifluoro-2-hydroxypropyl)urea hydrochloride] | – | 0.1 to 1000 | –
NCc1ccc(CNC(=O)N2CCN(C(=O)CNC(=O)C(=O)CO)CC2)cc1 [CF20, N-(4-(aminomethyl)benzyl)-4-(2-(3-hydroxy-2-oxopropanamido)acetyl)piperazine-1-carboxamide] | – | 0.1 to 1000 | –
C[C@@]1(O)CN(c2cccc(C(=O)N3CCC(c4cccc(CN)c4)CC3)c2)C(=O)[C@@H]1O [CMI9317, 1-{^3-[^4-(3-aminomethyl-phenyl)-piperidine-1-carbonyl]-phenyl}-3,4-dihydroxy-4-methyl-pyrrolidin-2-one hydrochloride] | – | – | 0.1 to 1000
C[C@]1(O)CN(c2cccc(C(=O)N3CCC(c4cccc(CN)c4)CC3)c2)C(=O)[C@H]1O [CMI9321, 1-{3-[4-(3-aminomethyl-phenyl)-piperidine-1-carbonyl]-phenyl}-3,4-dihydroxy-4-methyl-pyrrolidin-2-one hydrochloride] | – | – | 0.1 to 1000
NCc1ccc2c(c1)C1(CCN(C(=O)c3ccc(O)c(O)c3)CC1)CO2 [T2SPIRO, (5-(aminomethyl)-2H-spiro[benzofuran-3,4′-piperidine]-1′-yl)(3,4-dihydroxyphenyl)methanone] | 0.1 to 1000 | 0.1 to 1000 | –
NCc1ccc(F)c(C2CCN(C(=O)c3cccc4ccc(B(O)O)cc34)CC2)c1 [T11F, 8-(4-(5-(aminomethyl)-2-fluorophenyl)piperidine-1-carbonyl)naphthalen-2-ylboronic acid] | 1000 to 10000 | 1000 to 10000 | –
NCc1cccc(C2CCN(C(=O)c3cccc(/C=C/B(O)O)c3)CC2)c1 [T14, (E)-3-(4-(3-(aminomethyl)phenyl)piperidine-1-carbonyl)styrylboronic acid] | – | 0.1 to 1000 | –
NCc1cccc(C2CCN(C(=O)c3cccc(NC(=O)C(O)C4(O)CCC4)c3)CC2)c1 (stereo not drawn) [T21 (Diol), N-(3-(4-(3-(aminomethyl)phenyl)piperidine-1-carbonyl)phenyl)-2-hydroxy-2-(1-hydroxycyclobutyl)acetamide] | 0.1 to 1000 | 0.1 to 1000 | –
NCc1cccc(C2CCN(C(=O)c3cccc(NC(=O)C(=O)C4(O)CCC4)c3)CC2)c1 [T21, N-(3-(4-(3-(aminomethyl)phenyl)piperidine-1-carbonyl)phenyl)-2-(1-hydroxycyclobutyl)-2-oxoacetamide] | – | 0.1 to 1000 | –
NCc1cccc(C2CCN(C(=O)c3cccc(OCC(=O)C4(O)CCC4)c3)CC2)c1 [T22, 2-(3-(4-(3-(aminomethyl)phenyl)piperidine-1-carbonyl)phenoxy)-1-(1-hydroxycyclobutyl)ethanone] | – | 0.1 to 1000 | –
NCc1cccc(C2CCN(C(=O)/C=C/c3ccc(O)c(O)c3)CC2)c1 [T24, (E)-1-(4-(3-(aminomethyl)phenyl)piperidin-1-yl)-3-(3,4-dihydroxyphenyl)prop-2-en-1-one hydrochloride] | 1000 to 10000 | 1000 to 10000 | –
NCc1cccc(C2CCN(C(=O)CCc3ccc(O)c(O)c3)CC2)c1 [T24Dihydro, 1-(4-(3-(aminomethyl)phenyl)piperidin-1-yl)-3-(3,4-dihydroxyphenyl)propan-1-one (TFA salt)] | 1000 to 10000 | – | –
COc1cc(/C=C/C(=O)N2CCC(c3cccc(CN)c3)CC2)ccc1O [T24MON, (E)-1-(4-(3-(aminomethyl)phenyl)piperidin-1-yl)-3-(4-hydroxy-3-methoxyphenyl)prop-2-en-1-one] | – | 1000 to 10000 | –
NCc1cccc(C2CCN(C(=O)/C=C\c3ccc(O)c(O)c3)CC2)c1 [T24cis, (Z)-1-(4-(3-(aminomethyl)phenyl)piperidin-1-yl)-3-(3,4-dihydroxyphenyl)prop-2-en-1-one] | 1000 to 10000 | 1000 to 10000 | –
NCc1cccc(C2CCN(C(=O)c3cccc(N4C[C@@H](O)[C@@H](O)C4)c3)CC2)c1 [T25B, (4-(3-(aminomethyl)phenyl)piperidin-1-yl)(3-((3S,4R)-3,4-dihydroxypyrrolidin-1-yl)phenyl)methanone] | – | 0.1 to 1000 | 0.1 to 1000
NCc1cccc(C2CCN(C(=O)c3cccc(C(=O)N4C[C@@H](O)[C@H](O)C4)c3)CC2)c1 [T26diol cis, (4-(3-(aminomethyl)phenyl)piperidin-1-yl)(3-((3R,4R)-3,4-dihydroxypyrrolidine-1-carbonyl)phenyl)methanone] | 1000 to 10000 | 1000 to 10000 | –
